Source: PubChem BioAssay (NCI)
“And” between values parts separate entries of the source, which are not always exact repeats. Identical values can stand only once.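 The compound was tested at five concentrations on cells cultured in 96-well plates, with a 48-hour exposure period. Abbreviation: GI50, concentration required for 50% inhibition of growth. At the TGI there is no net growth.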

How the values were obtained:
Experiment in all cases: NCI tumour cell line growth inhibition, 48 h
TK-10 renal = system: TK-10 renal
RXF 393 renal = system: RXF 393 renal
HT29 colon = system: HT29 colon
SF-295 CNS = system: SF-295 CNS
HOP-92 NSCLC = system: HOP-92 NSCLC
SN12C renal = system: SN12C renal
MDA-MB-435 = system: MDA-MB-435
UO-31 renal = system: UO-31 renal
PC-3 prostate = system: PC-3 prostate
HCT-116 colon = system: HCT-116 colon

Compound | TGI (TK-10 renal) | TGI (RXF 393 renal) | TGI (HT29 colon) | TGI (SF-295 CNS) | TGI (HOP-92 NSCLC) | TGI (SN12C renal) | TGI (MDA-MB-435) | TGI (UO-31 renal) | TGI (PC-3 prostate) | TGI (HCT-116 colon) | GI50 (TK-10 renal) | GI50 (RXF 393 renal) | GI50 (HT29 colon) | GI50 (SF-295 CNS) | GI50 (HOP-92 NSCLC) | GI50 (SN12C renal) | GI50 (MDA-MB-435) | GI50 (UO-31 renal) | GI50 (PC-3 prostate) | GI50 (HCT-116 colon)
O=C1NC(=S)NC(=O)C1=Cc1cccc2cc3ccccc3cc12 | 3.48 µM | 3.53 µM | 3.74 µM | 7.19 µM | 3.76 µM | 4.9 µM | 4.65 µM | 3.94 µM | 3.3 µM | 3.74 µM |  |  |  |  |  |  |  |  |  | 
O=[N+]([O-])c1ccc(N=Nc2c(O)ccc3ccccc23)cc1 | > 100 µM | > 100 µM | > 100 µM | > 100 µM | > 100 µM | > 100 µM | > 100 µM | > 100 µM | > 100 µM | > 100 µM | 28 µM and > 100 µM | 38 µM and > 100 µM | 35.8 µM and > 100 µM | 29.8 µM and > 100 µM | 32.5 µM and > 100 µM |  |  |  |  | 
NC(=N\N=C/c1cccc([N+](=O)[O-])c1)/C(N)=N\N=C/c1cccc([N+](=O)[O-])c1 | > 100 µM | > 100 µM | > 100 µM | > 100 µM | > 100 µM | > 100 µM | > 100 µM | > 100 µM | > 100 µM | > 100 µM | > 100 µM | > 100 µM | > 100 µM | > 100 µM | > 100 µM | > 100 µM | > 100 µM | > 100 µM | > 100 µM | > 100 µM
c1cc(OCCN2CCCCC2)ccc1CNc1ccc2nc(CCC3CCCCC3)[nH]c2c1 | 8.26 µM | 3.49 µM | 3.7 µM | 3.88 µM | 2.45 µM | 3.33 µM | 3.09 µM | 2.85 µM | 3.71 µM | 3.57 µM | 2.9 µM | 1.5 µM | 0.907 µM | 1.98 µM | 0.565 µM | 1.52 µM | 1.63 µM | 1.49 µM | 1.6 µM | 1.64 µM
Cc1cc(N2CCN(c3ccnc4cc(Cl)ccc34)CC2)nc(NC2CCCCC2)n1 | 3.54 µM | 3.79 µM | 3.9 µM | 3.49 µM | 3.04 µM | 3.73 µM | 2.96 µM | 3.13 µM | 3.02 µM | 2.91 µM | 1.87 µM | 1.71 µM | 1.79 µM | 1.72 µM | 1.08 µM | 1.82 µM | 1.49 µM | 1.4 µM | 1.47 µM | 1.32 µM
COc1ccc(CNc2c3ccccc3nc3ccc(OC)cc23)cc1 | 13.9 µM | 3.04 µM | 10.1 µM | 4.27 µM | 7.69 µM | 12.6 µM | 6.32 µM | 9.13 µM | 11.8 µM | 11.6 µM | 3.77 µM | 1.52 µM | 2.11 µM | 1.73 µM | 2.17 µM | 3.31 µM | 1.99 µM | 1.93 µM | 2.8 µM | 2.55 µM
Cc1ccc(-c2nc(N)nc3c2nnn3Cc2cccc(CO[C@H]3CCOC3)n2)o1 | > 100 µM | > 100 µM | > 100 µM | > 100 µM | > 100 µM | > 100 µM | > 100 µM | > 100 µM | > 100 µM | > 100 µM | > 100 µM | > 100 µM | > 100 µM | > 100 µM | > 100 µM | > 100 µM | > 100 µM | > 100 µM | > 100 µM | > 100 µM
C=CCC(C(=O)O)c1ccccc1 (stereo not given) | > 100 µM | > 100 µM | > 100 µM | > 100 µM | > 100 µM | > 100 µM | > 100 µM | > 100 µM | > 100 µM | > 100 µM |  |  |  |  |  |  |  |  |  | 
CC[Si](CC)(CC)OC[C@]1([C@@H]2COC(C)(C)O2)CC=CC(=O)O1 | 79 µM | > 100 µM | > 100 µM | > 100 µM | > 100 µM | > 100 µM | > 100 µM | > 100 µM | > 100 µM | > 100 µM | 24.2 µM | 48 µM | 46.8 µM | 35.2 µM | 19.7 µM | 31.1 µM | 36.4 µM | 34.8 µM | 41.5 µM | 39.5 µM
Cn1nc(-c2ccccc2)nc1[N+](=O)[O-] | > 10 µM | > 10 µM | > 10 µM | > 10 µM | > 10 µM | > 10 µM | > 10 µM | > 10 µM | > 10 µM | > 10 µM |  |  |  |  |  |  |  |  |  | 
COc1cc2cc(C(=O)Nc3cc(N)c4ccccc4c3CCCl)[nH]c2c(OC)c1OC | 6.36 µM | 0.0219 µM | 12.7 µM | > 16.5 µM | 11.8 µM | 0.611 µM | 0.159 µM | 41.2 µM | 1.59 µM | 5.83 µM | 0.0932 µM | 0.00875 µM | 0.0438 µM | 0.016 µM | 0.167 µM | 0.0548 µM | 0.0483 µM | 0.0353 µM | 0.0252 µM | 0.0177 µM
COC(=O)c1c2c(c(C)[n+]([O-])c1C)C(=O)C=C(NCc1ccc(OC)cc1)C2=O | 25.8 µM | 5.99 µM | > 36.7 µM | 3.83 µM | 6.12 µM | 4.3 µM | 1.15 µM | 6.83 µM | 6.55 µM | 7.08 µM | 8.3 µM | 2.02 µM | 1.2 µM | 1.36 µM | 2.35 µM | 1.69 µM | 0.598 µM | 2.2 µM | 1.02 µM | 2.4 µM
COc1ccc(-c2nc3ncccn3c2/C=C/C(=O)c2cc(OC)c(OC)c(OC)c2)cc1 | 10.4 µM | 2.57 µM | 4.38 µM | 4.83 µM | 12 µM | 35.1 µM | 10.6 µM | 4.17 µM | 53.2 µM | 2.39 µM | 2.88 µM | 1.11 µM | 2.19 µM | 2.39 µM | 1.43 µM | 2.56 µM | 2.28 µM | 0.514 µM | 4.32 µM | 1.17 µM
